Data reported in patent publication US9593113B2, “Imide and acylurea derivatives as modulators of the glucocorticoid receptor” (BRISTOL-MYERS SQUIBB COMPANY, priority 2013, dated 2017).
Where two headings read alike, the source gives them in different places.

Columns and labels:
[1] = molecular target: human full-length glucocorticoid receptor (Homo sapiens (Human), UniProt P04150); test: Glucocorticoid Receptor Binding Assay (II), fluorescence polarization competitor kit; conditions: read-out: GR (Ki, nM) (measured in GR binding Assay II)
Procedure: In order to measure the binding of compounds on the glucocorticoid receptor a commercially available kit was used (Glucocorticoid receptor competitor assay kit, PanVera Co., Madison, Wis., P2816). Briefly, a cell lysate containing recombinantly expressed human full-length glucocorticoid receptor was mixed with a fluorescently labeled glucocorticoid (1 nM Fluormone GS1) in the presence or absence of test compound. After one hour at room temperature, the fluorescence polarization (FP) of the samples were measured.

[2] = test system: AP-1 induced transcriptional activity; test: Cellular transrepressional assay (AP-1 luciferase reporter, PMA-activated A549 cell); format: cell-based; conditions: A549 cell, 10 ng/ml PMA, 7 hours; for EC50: read-out: AP-1 (EC50, nM) (measured in cellular transrepression assay)
Procedure: To measure the ability of test molecules to inhibit AP-1 induced transcriptional activity we utilized an A549 cell which was stably transfected with a plasmid containing 7×AP-1 DNA binding sites (pAP-1-Luc plasmid, Stratagene Co., La Jolla, Calif.) followed by the gene for luciferase. Cells were activated with 10 ng/ml of phorbol myristic acid (PMA) plus or minus test molecules for 7 hours. After 7 hours a luciferase reagent was added to measure luciferase enzymatic activity in the cell. After a 10 minute incubation of luciferase reagent with cells, luminescence was measured in a TOPCOUNT® luminescence counter. Repression of AP-1 activity was calculated as the percentage decrease in the signal induced by PMA alone. Test molecules were analyzed in the concentration range from 0.1 nM to 40 μM. EC50s were determined by using standard curve fitting methods such as Excel fit (Microsoft Co.). An EC50 is the test molecule concentration at which there is a 50% repression of the maximal inhibition of transcription, i.e., a 50% reduction of AP-1 activity.

Chain of human full-length glucocorticoid receptor (P04150 whole entry): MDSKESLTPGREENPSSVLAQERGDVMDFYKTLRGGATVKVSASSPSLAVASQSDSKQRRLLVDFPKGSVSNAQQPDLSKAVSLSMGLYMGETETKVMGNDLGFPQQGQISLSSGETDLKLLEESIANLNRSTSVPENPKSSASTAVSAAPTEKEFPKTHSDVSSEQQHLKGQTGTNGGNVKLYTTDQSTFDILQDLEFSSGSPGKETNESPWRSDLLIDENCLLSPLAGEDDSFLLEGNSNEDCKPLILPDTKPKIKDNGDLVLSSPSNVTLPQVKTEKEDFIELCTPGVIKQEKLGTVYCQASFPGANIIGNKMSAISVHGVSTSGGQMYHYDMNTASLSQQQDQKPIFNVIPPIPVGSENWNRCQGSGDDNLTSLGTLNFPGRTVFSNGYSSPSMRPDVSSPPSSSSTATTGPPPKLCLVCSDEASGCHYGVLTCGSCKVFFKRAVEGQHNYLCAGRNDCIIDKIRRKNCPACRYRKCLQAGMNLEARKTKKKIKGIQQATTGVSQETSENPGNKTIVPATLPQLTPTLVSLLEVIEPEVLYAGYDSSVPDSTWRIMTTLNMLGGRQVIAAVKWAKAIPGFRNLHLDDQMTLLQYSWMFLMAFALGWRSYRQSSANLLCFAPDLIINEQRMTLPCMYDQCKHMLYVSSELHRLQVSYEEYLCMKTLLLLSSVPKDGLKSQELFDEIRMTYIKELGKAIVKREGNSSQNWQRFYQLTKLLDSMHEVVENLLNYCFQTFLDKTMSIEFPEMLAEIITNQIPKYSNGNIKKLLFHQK

| Ki [1] [nM] | EC50 ([2]; Homo sapiens) [nM] | SMILES | AP-1 Max % inhibition (measured in cellular transrepression assay) [2] [%] | EC50 [2] [nM] |
| --- | --- | --- | --- | --- |
| 42.7 | 5000 | CCC(=O)NC(=O)C(C)(C)[C@@H]1c2ccc(Cl)nc2Oc2c(F)cccc21 [Example 1] | 17.32 |  |
|  | 4.97 | CC(=O)NC(=O)C(C)(C)[C@@H]1c2ccc(-c3ccc(C(=O)N4CCOCC4)cc3)nc2Oc2c(F)cccc21 [Example 2] | 67.48 |  |
|  | 267 | CC(=O)NC(=O)C(C)(C)[C@@H]1c2ccc(-c3ccc(C(=O)N(C)C)cc3)nc2Oc2c(F)cccc21 [Example 3] | 79.66 |  |
|  | 6.65 | CC(=O)NC(=O)C(C)(C)[C@H]1c2ccccc2Oc2nc(-c3ccc(C(=O)N4CCOCC4)cc3)ccc21 [Example 4] | 67.93 |  |
|  | 180 | CCC(=O)NC(=O)C(C)(C)[C@@H]1c2ccc(-c3ccc(C(=O)N4CCOCC4)cc3)nc2Oc2c(F)cccc21 [Example 5] | 32.83 |  |
|  | 623 | CC(C)(C(=O)NC(=O)N1CCOCC1)[C@@H]1c2ccc(-c3ccc(C(=O)N4CCOCC4)cc3)nc2Oc2c(F)cccc21 [Example 10] | 66.12 |  |
|  | 337 | CNC(=O)NC(=O)C(C)(C)[C@@H]1c2ccc(Cl)nc2Oc2c(F)cccc21 [Example 14] | 54.92 |  |
|  | 47.1 | CNC(=O)NC(=O)C(C)(C)[C@@H]1c2ccc(-c3ccc(C(C)(C)O)cc3)nc2Oc2c(F)cccc21 [Example 15] | 61.15 |  |
| 1.6 |  | CNC(=O)NC(=O)C(C)(C)[C@@H]1c2ccc(-c3ccc(OC(C)C)cc3)nc2Oc2c(F)cccc21 [Example 16] | 49.58 | 35.1 |
| 9.68 |  | CNC(=O)NC(=O)C(C)(C)[C@@H]1c2ccc(-c3ccc(OC(C)C)nc3)nc2Oc2c(F)cccc21 [Example 17] | 37.10 | 2500 |
| 239 |  | CNC(=O)NC(=O)C(C)(C)[C@@H]1c2ccc(-c3cnc(N4CCN(C)CC4)nc3)nc2Oc2c(F)cccc21 [Example 18] | 21.96 | 5000 |
|  | 199 | CC(C)NC(=O)NC(=O)C(C)(C)[C@@H]1c2ccc(-c3ccc(C(=O)N4CCOCC4)cc3)nc2Oc2c(F)cccc21 [Example 19] | 25.94 |  |
| 5.26 |  | CNC(=O)NC(=O)C(C)(C)[C@@H]1c2ccc(-c3ccc(S(=O)(=O)C(C)C)cc3)nc2Oc2c(F)cccc21 [Example 25] | 25.41 | 347 |
|  | 5000 | COC(=O)NC(=O)C(C)(C)[C@@H]1c2ccc(-c3ccc(C(=O)OC)cc3)nc2Oc2c(F)cccc21 [Example 26] | 6.98 |  |
| 10.9 | 5000 | CNC(=O)NC(=O)C(C)(C)[C@@H]1c2ccc(-c3ccc(N4CCOCC4)nc3)nc2Oc2c(F)cccc21 [Example 27] | 16.38 |  |
|  | 7.63 | CC(C)(C(=O)NC(N)=O)[C@H]1c2ccccc2Oc2nc(-c3ccc(C(=O)N4CCOCC4)cc3)ccc21 [Example 28] | 68.66 |  |
|  | 786 | CC(C)(C(=O)NC(=O)NCCO)[C@@H]1c2ccc(-c3ccc(C(=O)N4CCOCC4)cc3)nc2Oc2c(F)cccc21 [Example 77] | 55.34 |  |
|  | 340 | CC(C)(O)CNC(=O)NC(=O)C(C)(C)[C@@H]1c2ccc(-c3ccc(C(=O)N4CCOCC4)cc3)nc2Oc2c(F)cccc21 [Example 78] | 46.32 |  |
|  | 789 | CC(C)(O)CNC(=O)NC(=O)C(C)(C)[C@@H]1c2ccc(-c3ccc(C(C)(C)O)cc3)nc2Oc2c(F)cccc21 [Example 79] | 36.12 |  |
|  | 84.6 | CC(C)(O)c1ccc(-c2ccc3c(n2)Oc2c(F)cccc2[C@@H]3C(C)(C)C(=O)NC(=O)NCCO)cc1 [Example 80] | 44.42 |  |

Further lines, the compound ahead of its results:

| SMILES | Ki [1] [nM] | EC50 ([2]; Homo sapiens) [nM] | AP-1 Max % inhibition (measured in cellular transrepression assay) [2] [%] | EC50 [2] [nM] |
| --- | --- | --- | --- | --- |
| CC(=O)NC(=O)C(C)(C)[C@@H]1c2ccc(-c3ccc(C(=O)N4CCCC4)cc3)nc2Oc2c(F)cccc21 [Example 8] | 3.59 |  | 64.35 | 5.97 |
| CNC(=O)NC(=O)C(C)(C)[C@@H]1c2ccc(-c3ccc(C(=O)N4CCCC4)cc3)nc2Oc2c(F)cccc21 [Example 11] | 4.44 |  | 46.34 | 29.6 |
| CCS(=O)(=O)c1ccc(-c2ccc3c(n2)Oc2c(F)cccc2[C@@H]3C(C)(C)C(=O)NC(=O)NC)cc1 [Example 12] | 5.04 |  | 36.42 | 85.7 |
| CNC(=O)NC(=O)C(C)(C)[C@@H]1c2ccc(-c3ccc(S(C)(=O)=O)cc3)nc2Oc2c(F)cccc21 [Example 13] | 13.6 |  | 31.60 | 483 |
| CC(C)(C(=O)NC(=O)NC1CCCC1)[C@@H]1c2ccc(-c3ccc(C(=O)N4CCOCC4)cc3)nc2Oc2c(F)cccc21 [Example 20] |  |  | 29.26 | 135 |
| CC(C)(C(=O)NC(=O)Nc1ccccc1)[C@@H]1c2ccc(-c3ccc(C(=O)N4CCOCC4)cc3)nc2Oc2c(F)cccc21 [Example 21] |  |  | 39.92 | 21.7 |
| CCNC(=O)NC(=O)C(C)(C)[C@@H]1c2ccc(-c3ccc(C(=O)N4CCOCC4)cc3)nc2Oc2c(F)cccc21 [Example 22] |  |  | 44.77 | 8.21 |
| CC(C)(C(=O)NC(N)=O)[C@H]1c2ccccc2Oc2nc(-c3ccc(C(=O)N4CCOCC4)c(F)c3)ccc21 [Example 44] |  |  | 69.43 | 13.9 |
| CC(C)(C(=O)NC(N)=O)[C@H]1c2ccccc2Oc2nc(-c3ccc(C(=O)N4CCOCC4)nc3)ccc21 [Example 55] |  |  | 60.59 | 116 |
| CC(C)(C(=O)NC(N)=O)[C@@H]1c2ccc(-c3ccc(C(=O)N4CCOCC4)c(F)c3)nc2Oc2c(F)cccc21 [Example 56] |  |  | 72.50 | 6.39 |
| CC(C)(O)c1ccc(-c2ccc3c(n2)Oc2c(F)cccc2[C@@H]3C(C)(C)C(=O)NC(N)=O)cc1 [Example 69] |  | 2.03 | 67.09 |  |
| COc1ccc2c(c1)Oc1ccccc1[C@@H]2C(C)(C)C(=O)NC(N)=O [Example 74] |  | 5000 | 7.70 |  |
| CC(C)S(=O)(=O)c1ccc(-c2ccc3c(n2)Oc2ccccc2[C@@H]3C(C)(C)C(=O)NC(N)=O)cc1 [Example 82] |  | 6.69 | 60.06 |  |
| CC(C)(C(=O)NC(N)=O)[C@@H]1c2ccc(-c3ccc(C(=O)N4CCC4)cc3)nc2Oc2c(F)cccc21 [Example 84] |  | 4.22 | 67.75 |  |
